According to US9861601B2 (The Board of Trustees of the Leland Stanford Junior …, priority 2012, dated 2018):
“Also recorded” adds a separate entry of the source. Blank lines part the entries; values can stand above or below the molecule they belong to.

Assays:
Recombinant human LTA4H = target: T1, Recombinant human LTA4H (Homo sapiens, UniProt P09960); assay: In vitro epoxide hydrolase activity assay (LTB4 EIA readout); assay type: biochemical; settings: LTA4 substrate 0.13 μM
T1 sequence (P09960 1-611): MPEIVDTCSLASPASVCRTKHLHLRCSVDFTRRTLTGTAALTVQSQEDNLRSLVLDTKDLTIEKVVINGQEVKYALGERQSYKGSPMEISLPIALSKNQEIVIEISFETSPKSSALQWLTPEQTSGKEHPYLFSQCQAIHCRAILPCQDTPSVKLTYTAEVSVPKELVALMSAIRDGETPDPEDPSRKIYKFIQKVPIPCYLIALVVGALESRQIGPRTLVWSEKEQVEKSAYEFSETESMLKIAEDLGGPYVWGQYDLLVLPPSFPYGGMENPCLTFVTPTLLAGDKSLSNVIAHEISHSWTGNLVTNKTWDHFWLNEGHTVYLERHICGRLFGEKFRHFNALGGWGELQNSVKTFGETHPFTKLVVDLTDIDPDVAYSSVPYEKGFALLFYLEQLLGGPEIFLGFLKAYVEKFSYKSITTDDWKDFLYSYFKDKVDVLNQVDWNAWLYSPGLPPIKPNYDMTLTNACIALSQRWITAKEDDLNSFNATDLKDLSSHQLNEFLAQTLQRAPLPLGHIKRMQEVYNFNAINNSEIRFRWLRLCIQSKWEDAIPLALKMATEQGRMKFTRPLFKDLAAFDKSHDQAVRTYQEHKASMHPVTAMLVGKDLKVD
Description: The LTA4H inhibitory activity of certain compounds in this invention was measured using an in vitro epoxide hydrolase activity assay. In this assay, an LTA4 substrate was first prepared from the methyl ester of LTA4 (Cayman Chemical), which was treated under nitrogen with […] of NaOH, at room temperature, for 40 min. The LTA4 substrate in its free acid form was kept frozen at −80° C. until use. Recombinant human LTA4H (36 ng) was incubated with various concentrations of test compounds for 10 min. at room temperature in assay buffer (0.1 M potassium phosphate, pH 7.4, 5 mg/ml fatty acid-free bovine serum albumin) in a volume of 200 μl. Then, the mixture was incubated with 25 μl of LTA4 substrate (final concentration, 40 ng/ml, 0.13 μM; final volume, 225 μl) for 30 min. at room temperature. The assay was terminated by diluting 20-fold with assay buffer. LTB4 production from each reaction was then assayed using the LTB4 EIA kit (catalog no. 520111, Cayman Chemical). The concentration of compound required for half-maximal inhibition of recombinant enzyme activity (IC50) was calculated by nonlinear regression using GraphPad Prism 4.0 (GraphPad Software Inc), one-site binding competition.

[1] = test system: Rat pulmonary arterial endothelial cells (PAECs); assay: PAEC apoptosis assay (Annexin V flow cytometry, with or without macrophage co-culture); assay type: cell-based; settings: for PAEC apoptosis induced by exogenous leukotriene (no macrophages): 24 hrs
Description: The transwell assay involved co-culturing IMØs from several sources with PAECs. IMØs, from (A) DMSO and (B) SU rat lungs, were isolated and co-cultured with PAECs. After 24 hr, PAEC apoptosis was analyzed by flow cytometry for Annexin V expression. To isolate the specific impact of LTB4 generated by 5-LO activation further, IMØs were extracted from healthy rats and transfected with S271E to produce a phosphorylation mimic mutant or with S271A to produce a dephosphorylation mimic mutant. Vector and WT 5-LO DNA-transfected IMØs were used as controls. Flow cytometry was performed on PAECs co-cultured with IMØs extracted from healthy rats and transfected with (C) vector as control, (D) WT 5-LO, (E) S271A, (F) S271E (G) S271E mutant treated with n-acetyl cysteine (NAC) (200 nM) or (H) S271A mutant treated with LTB4 (100 nM). PAECs were treated with (I) exogenous LTB4 (200 nM) or (J) LTB4 (200 nM) with a BLT1 inhibitor U75302 […] (n=3 experiments per group). Representative flow cytometry plots are shown, n=3 experiments per group.
The results reported in this example were obtained using the following PAEC apoptosis assay. Rat pulmonary arterial endothelial cells (PAECs) were co-cultured with macrophages (+/− transfection) for 24 hr. They were then washed once with PBS and once with binding buffer from the Annexin V Apoptosis Detection Kit (88-8007; eBioscience). Cells were then suspended in binding buffer at 1-5×10^6/ml. 5 μl of APC conjugated Annexin V was added to 100 μl of cells, which were then incubated at room temperature for 15 min. Five μl of propidium iodide staining solution were added 5 min. prior to flow cytometry analysis on an LSRFortessa cell analyzer (BD Biosciences).

athymic rat model of PAH = assay: SU5416 athymic nude rat model of PAH (PH); assay type: in vivo; settings: for reversal of established PH / PH-related death: treatment started 21 days (3 wk) after SU5416, doses as in b355, assessed at wk 5
Description: In the model, PH was first initiated by a single injection of a VEGFR2 inhibitor, SU5416, and monitored by weekly echocardiography. Survival of the animals was recorded on daily basis. […] After 5 weeks (day 35), animals were sacrificed after right heart catheterization. […] Oral availability of ubenimex was determined by pharmacokinetic analysis.
The athymic nude rat model is an accepted model of severe PAH associated with immune dysregulation. Athymic nude rats (rnu/rnu) (Charles River Laboratories) were used for these studies. Six to eight week old animals were injected subcutaneously (s.c.) with a single dose of either SU5416 (SU) (10 mg/kg) dissolved in DMSO or DMSO (vehicle) alone. All animals were maintained in normoxic conditions. PH progression was monitored by weekly echocardiography (ECHO). Survival of rats was monitored out to wk 5 when they underwent a terminal right heart catheterization. PH was confirmed by ECHO. Hemodynamic measurements included right ventricular systolic pressure (RVSP) determined by right heart catheterization and right ventricular hypertrophy (RVH) determined by the weight ratio of RV/(LV+S) (right ventricle/(left ventricle+septum)).
All animals were sacrificed 5 wk after SU administration for hemodynamic measurements. […] Serial improvement was observed from the time of treatment initiation. Interval improvement was manifested by decreasing RV wall thickness and increasing pulmonary artery acceleration times (PAAT) after initiation of treatment. […] Here again, the compound of Formula III was notable: treatment with that compound yielded an RVH ratio of 0.29. RVH for healthy rats is generally about 0.25.

[2] = patients with PAH; cited from earlier work
[3] = test system: human primary pulmonary arterial smooth muscle cell (hPASMC); assay: hPASMC proliferation (MTT) and hypertrophy (protein/DNA ratio) assay; assay type: cell-based; settings: 24 hr
Description: An in vitro toxicology assay kit (#M-5655, #8910, Sigma) was used to measure the number of viable hPASMC after LTB4 treatment. Briefly, hPASMCs were plated in a 96 well plate one day before treatment. Cells were treated with 200 nM or 400 nM LTB4 for 24 hr. On the day of assay, growing medium was first removed from the cells, then 20 μL of 12 mM MTT ((3-(4,5-Dimethylthiazol-2-yl)-2,5-diphenyltetrazolium bromide, a yellow tetrazole)) stock solution were then added to each well. After incubation at 37 degrees C. for 4 hr, 200 μL MTT dissolution solution (10% Triton X-100 plus 0.1 N HCl in anhydrous isopropanol) were added to each well. Relative optical density, which was used as a parameter for proliferation, was calculated by subtracting the absorbance at 690 nm from that at 570 nm. Cellular hypertrophy was determined by protein/DNA ratio. hPASMCs were seeded on 6 well plates. Cells were treated with 200 nM or 400 nM LTB4 for 24 hr. hPASMCs were then collected and divided into to two. For one part of each sample, a BCA protein assay kit (#23227, Thermo Scientific) was used to determined the total protein amount. DNA was purified from the other part of the sample using a Miniprep kit (QIAGEN). DNA concentration was then measured by nanodrop.

Structure (SMILES): CC(=O)N[C@H](Cc1ccc(O)cc1)[C@H](O)C(=O)N[C@@H](CC(C)C)C(=O)O
IC50 (Recombinant human LTA4H): 13 ± 4 nM

Structure (SMILES): CCCCCCCCCCCCC/C=C/[C@@H](O)[C@@H](N)COP(=O)(O)O [SIP, sphingosine-1-phosphate]
rescue of PAECs co-cultured with S271E cells ([1]; exogenously added): able to rescue

Structure (SMILES): CCCCC/C=C\C\C=C/C=C/C=C/[C@@H](SC[C@H](NC(=O)CC[C@H](N)C(=O)O)C(=O)NCC(=O)O)[C@@H](O)CCCC(=O)O [LTC4, leukotriene C4]
PAEC apoptosis induced by exogenous leukotriene (no macrophages) [1]: did not induce PAEC apoptosis

Structure (SMILES): Oc1ccc(C=Cc2cc(O)cc(O)c2)cc1 [resveratrol]
reversal of established PH / PH-related death (athymic rat model of PAH): did not attenuate PH or improve survival

Structure (SMILES): O=C(O)C1CCN(Cc2ccc(Oc3nc4ccccc4s3)cc2)CC1 [JNJ26993135, 1-[4-(benzothiazol-2-yloxy)-benzyl]-piperidine-4-carboxylic acid]
accumulation of 5-LO expressing periarteriolar macrophages and B cells in lungs (athymic rat model of PAH; SU-treated athymic rats): significantly reduced | in vivo PAEC apoptosis (athymic rat model of PAH; SU-treated athymic rats): reduced | reversal of established PH / PH-related death (athymic rat model of PAH): efficacious in reversing severe PH and preventing PH-related death; also recorded: reverses established PH

Structure (SMILES): CN1CC(=O)N2[C@H](c3ccc4c(c3)OCO4)c3[nH]c4ccccc4c3C[C@@H]2C1=O [Tadalafil]
half-life [2]: 35 h

IC50 (Recombinant human LTA4H): 93 ± 16 nM
Structure (SMILES): COC(=O)[C@H](CC(C)C)NC(=O)[C@@H](O)[C@@H](Cc1ccc(Br)cc1)NC(C)=O [mono-acyl ubenimex bromide, (S)-methyl 2-((2S,3R)-3-acetamido-4-(4-bromophenyl)-2-hydroxybutanamido)-4-methylpentanoate]

Structure (SMILES): CC(=O)N[C@@H](CS)C(=O)O [n-acetyl cysteine]
PAEC apoptosis in co-culture with S271E mutant macrophages ([1]; NAC (200 nM)): no diminution of apoptosis

Structure (SMILES): CCCCC/C=C\C\C=C/C=C/C=C/[C@@H](SC[C@H](N)C(=O)NCC(=O)O)[C@@H](O)CCCC(=O)O [LTD4, leukotriene D4]
PAEC apoptosis induced by exogenous leukotriene (no macrophages) [1]: did not induce PAEC apoptosis

IC50 (Recombinant human LTA4H): 54 ± 13 nM
Structure (SMILES): COC(=O)[C@H](CC(C)C)NC(=O)[C@@H](O)[C@H](N)Cc1ccccc1 [ubenimex methy ester, (S)-methyl 2-((2S,3R)-3-amino-2-hydroxy-4-phenylbutanamido)-4-methylpentanoate]

Structure (SMILES): O=C(NC1CCCCC1)NC1CCCCC1 [dicyclohexyl urea]
reversal of established PH / PH-related death (athymic rat model of PAH): relatively less therapeutic

Structure (SMILES): CC(=O)Oc1ccccc1C(=O)O [aspirin]
reversal of established PH / PH-related death (athymic rat model of PAH): relatively less therapeutic

Structure (SMILES): CC(=O)N[C@H](Cc1ccc(O)cc1)[C@H](OC(C)=O)C(=O)N[C@@H](CC(C)C)C(=O)O
IC50 (Recombinant human LTA4H): 43 ± 11 nM

Structure (SMILES): CCCCC/C=C\C[C@@H](O)/C=C/C=C/C=C\[C@@H](O)CCCC(=O)O [LTB4, leukotriene B4]
cellular hypertrophy (protein/DNA ratio) ([3]; 200 nM or 400 nM): increased in a similar pattern | number of PASMC versus negative control group ([3]; 200 nM): 1.8 fold | number of PASMC versus negative control group ([3]; 400 nM): two fold more | PAEC apoptosis induced by exogenous leukotriene (no macrophages) [1]: significant apoptosis | PAEC apoptosis in co-culture with S271A transfected macrophages ([1]; exogenous LTB4 (100 nM)): caused apoptosis

Structure (SMILES): CCCCC/C=C\C[C@@H](O)/C=C/c1cccc(C[C@@H](O)CCCCO)n1 [U75302]
LTB4-mediated PAEC apoptosis ([1]; LTB4 (200 nM) with U75302, 24 hr): prevented LTB4-mediated apoptosis

Structure (SMILES): COC(=O)[C@H](CC(C)C)NC(=O)[C@@H](OC(C)=O)[C@@H](Cc1ccc(Br)cc1)NC(C)=O [di-acyl ubenimex bromide, (S)-methyl 2-((2S,3R)-3-acetamido-2-acetoxy-4-(4-bromophenyl)butanamido)-4-methylpentanoate]
IC50 (Recombinant human LTA4H): 40 ± 22 nM

IC50 (Recombinant human LTA4H): 10 ± 5 nM
Structure (SMILES): CC(C)C[C@H](NC(=O)[C@@H](O)[C@H](N)Cc1ccc(Oc2nc3ccccc3s2)cc1)C(=O)O [Formula III, (S)-2-((2S,3R)-3-amino-4-(4-(benzo[d]thiazol-2-yloxy)phenyl)-2-hydroxybutanamido)-4-methylpentanoic acid]
RVSP (athymic rat model of PAH; 1 mg/kg p.o. daily, sacrificed 5 wk after SU): 28 mm Hg | RVH ratio (athymic rat model of PAH; 1 mg/kg p.o. daily, sacrificed 5 wk after SU, RV/(LV+S)): 0.29

Structure (SMILES): COC(=O)[C@H](CC(C)C)NC(=O)[C@@H](OC(C)=O)[C@@H](Cc1ccccc1)NC(C)=O [di-acyl ubenimex, (S)-methyl 2-((2S,3R)-3-acetamido-2-acetoxy-4-phenylbutanamido)-4-methylpentanoate]
IC50 (Recombinant human LTA4H): 25 ± 18 nM

Structure (SMILES): CC(c1cc2ccccc2s1)N(O)C(N)=O (centres unmarked) [zileuton, 1-[1-(1-benzothiophen-2-yl)ethyl]-1-hydroxyurea]
reversal of established PH / PH-related death (athymic rat model of PAH): mildly attenuated pressures and prevented death

IC50 (Recombinant human LTA4H): 94 ± 21 nM
Structure (SMILES): COC(=O)[C@H](CC(C)C)NC(=O)[C@@H](O)[C@@H](Cc1ccccc1)NC(C)=O [mono-acryl ubenimex, (S)-methyl 2-((2S,3R)-3-acetamido-2-hydroxy-4-phenylbutanamido)-4-methylpentanoate]

Structure (SMILES): CCCCC/C=C\C\C=C/C=C/C=C/[C@@H](SC[C@H](N)C(=O)O)[C@@H](O)CCCC(=O)O [LTE4, leukotriene E4]
PAEC apoptosis induced by exogenous leukotriene (no macrophages) [1]: did not induce PAEC apoptosis
